Values joined by “and” are separate entries in the source; they are usually repeats but may differ in a detail not shown here. Identical values can stand only once.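 All cell lines were grown in 96-well plates and treated with compound for 48 hours. GI50 is the concentration that inhibits growth by half. The concentration for full growth arrest is given as TGI.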
Tests used:
Assay in all cases: growth of human tumour cells (NCI), 48 h
A549 NSCLC = tested on: A549 NSCLC
BT-549 breast = tested on: BT-549 breast
CCRF-CEM leukemia = tested on: CCRF-CEM leukemia
COLO 205 colon = tested on: COLO 205 colon
KM12 colon = tested on: KM12 colon
MCF7 breast = tested on: MCF7 breast
MDA-MB-435 = tested on: MDA-MB-435
NCI-H522 lung = tested on: NCI-H522 lung
OVCAR-3 ovarian = tested on: OVCAR-3 ovarian
SK-MEL-2 melanoma = tested on: SK-MEL-2 melanoma

Compound	TGI (A549 NSCLC)	TGI (BT-549 breast)	TGI (CCRF-CEM leukemia)	TGI (COLO 205 colon)	TGI (KM12 colon)	TGI (MCF7 breast)	TGI (MDA-MB-435)	TGI (NCI-H522 lung)	TGI (OVCAR-3 ovarian)	TGI (SK-MEL-2 melanoma)	GI50 (A549 NSCLC)	GI50 (BT-549 breast)	GI50 (CCRF-CEM leukemia)	GI50 (COLO 205 colon)	GI50 (KM12 colon)	GI50 (MCF7 breast)	GI50 (MDA-MB-435)	GI50 (NCI-H522 lung)	GI50 (OVCAR-3 ovarian)	GI50 (SK-MEL-2 melanoma)
COc1cc(C(=O)c2cocc2C(=O)c2ccc3c(c2)OCO3)cc(OC)c1OC	> 68 µM	0.552 µM	> 51.6 µM	26.5 µM	59.1 µM	> 100 µM	0.955 µM	1.85 µM	8.15 µM	> 41.7 µM	–	–	–	–	–	–	–	–	–	–
CC1(C)CCC[C@]2(C)c3ccccc3C(=O)CC12 (some centres undefined)	> 100 µM	> 100 µM	> 100 µM	> 100 µM	> 100 µM	> 100 µM	> 100 µM	76.1 µM	> 100 µM	61.3 µM	54.1 µM	39.4 µM	31.7 µM	27.4 µM	23.8 µM	38.2 µM	22.9 µM	27.7 µM	41.2 µM	22 µM
COC(=O)[C@H](Cc1cn(C)cn1)NC(=O)[C@H](Cc1ccccc1)NC(=O)Nc1cc(C(F)(F)F)cc(C(F)(F)F)c1	31.6 µM	34.5 µM	24.8 µM	31.6 µM	28.2 µM	9.73 µM and 29.4 µM	29.4 µM	24.7 µM	5.42 µM and 11.1 µM	32.3 µM	16.1 µM	19.2 µM	3.9 µM and 8.86 µM	15.3 µM	13.5 µM	2.58 µM and 5.03 µM	15.3 µM	11.7 µM	2.25 µM and 3.46 µM	17.7 µM
O=C(/C=C/C12c3ccccc3C(c3ccccc31)C1C(=O)NC(=O)C12)c1ccccc1 (centres undefined)	11.8 µM	2.84 µM	12.5 µM	4.03 µM	11 µM	7.6 µM	5.9 µM	3.69 µM	3.37 µM	4.62 µM	2.65 µM	1.4 µM	2.17 µM	2.05 µM	2.72 µM	1.45 µM	2.16 µM	1.8 µM	1.65 µM	2.35 µM
CNC(=O)c1ccccc1Nc1nc(Nc2ccc3c(c2OC)CCC[C@H](N2CCN(CCO)CC2)C3)ncc1Cl	10.2 µM and > 10 µM	16 µM and > 10 µM	11 µM and > 10 µM	2.2 µM and 1.6 µM	11.2 µM and > 10 µM	11.2 µM and > 10 µM	6.92 µM and > 10 µM	10.5 µM and 4.32 µM	20.3 µM and > 10 µM	5.9 µM and 2.7 µM	1.45 µM and 1.44 µM	3.84 µM and 3.43 µM	2.95 µM and 2.97 µM	0.335 µM and 0.295 µM	3.04 µM and 3.23 µM	0.37 µM and 0.374 µM	1.33 µM and 0.901 µM	1.89 µM and 1.12 µM	6.74 µM and 3.18 µM	1.56 µM and 0.613 µM
Cc1cc(O)c(-c2ccc([C@@H](C)CN(C)C)cc2)c2c1[nH]c(=O)c1sccc12	14.6 µM	3.44 µM	> 41.9 µM	5.2 µM	6.71 µM	3.14 µM	15.2 µM	2.9 µM	6.17 µM	3.04 µM	0.647 µM	0.574 µM	1.77 µM	2.18 µM	0.482 µM	0.103 µM	0.981 µM	0.436 µM	0.613 µM	0.679 µM
C=C1CCC2C3(C)COC(c4ccccc4Cl)OC3CCC2(C)C1/C=C/C1=CCOC1=O (centres undefined)	> 100 µM	72.9 µM	> 100 µM	> 100 µM	> 100 µM	> 100 µM	> 100 µM	> 100 µM	> 100 µM	> 100 µM	4.97 µM	3.55 µM	5.33 µM	17.9 µM	6.71 µM	4.38 µM	9.89 µM	4.24 µM	26.2 µM	77.7 µM
CN(C)CCCNc1nc2ccccc2c2[nH]c3ccccc3c12	8.18 µM	5.35 µM	1.38 µM	10.1 µM	2.28 µM	1.81 µM	3.89 µM	11.1 µM	2.23 µM	38.8 µM	0.402 µM	1.86 µM	0.206 µM	0.795 µM	0.721 µM	0.417 µM	1.28 µM	1.32 µM	0.66 µM	6.69 µM
CN1CCN(CCCOc2cc(O)c3c(=O)cc(-c4ccccc4)oc3c2)CC1	91.1 µM	46 µM	56.7 µM	31.6 µM	54.7 µM	30 µM	32.9 µM	47 µM	54.9 µM	> 100 µM	28.8 µM	21.1 µM	23.6 µM	15.5 µM	22 µM	15.3 µM	13.7 µM	21.6 µM	20.8 µM	35.3 µM
CS(=O)(=O)N(c1cc(-c2ccc3ncnc(Nc4ccc(F)c(Cl)c4)c3c2)cnc1Cl)S(C)(=O)=O	11.2 µM	5.06 µM	> 100 µM	5.93 µM	9.81 µM	3.58 µM	17.2 µM	11.1 µM	4.24 µM	4.01 µM	1.98 µM	0.638 µM	0.527 µM	1.32 µM	2.43 µM	0.246 µM	1.83 µM	1.57 µM	0.728 µM	1.16 µM
C/C=C(\C)C(=O)OC1/C=C(\C)CC/C=C(\C)CC2OC(=O)C(C)(OC(C)=O)C12 (centres undefined)	> 100 µM	> 100 µM	> 100 µM	> 100 µM	> 100 µM	> 100 µM	> 100 µM	> 100 µM	> 100 µM	> 100 µM	–	–	–	–	–	–	–	–	–	–
Nc1cccc2c1C(=O)c1cccc(NC(=O)c3ccccc3)c1C2=O	4.66 µM	33.9 µM	> 100 µM	6.74 µM	> 100 µM	21.3 µM	0.414 µM	0.618 µM	1.47 µM	7.26 µM	0.677 µM	0.674 µM	0.401 µM	0.354 µM	0.374 µM	0.258 µM	0.0364 µM	0.0655 µM	0.254 µM	0.25 µM
Cc1cccc2c1[nH]c(=O)c1c3ccccc3cn21	> 100 µM	59.2 µM	12.6 µM	34.8 µM	22.8 µM	12.5 µM	11.6 µM	64.1 µM	28.2 µM	> 100 µM	4.98 µM	12 µM	1.2 µM	7.33 µM	3.38 µM	–	3.14 µM	6.52 µM	4.78 µM	14.4 µM

From PubChem BioAssay (NCI)
